# Activity calls are given as the source filed them. The rule behind the calls is not given here.
# Key:
# [1] = test system: 5-8F; assay: Antiproliferative activity against human 5-8F cells assessed as cell viability at 80 uM incubated for 72 hrs by CCK-8 assay; assay type: functional; details: read-out: Activity
# [2] = test system: HeLa; assay: Antiproliferative activity against human HeLa cells assessed as cell viability at 80 uM incubated for 72 hrs by CCK-8 assay; assay type: functional; details: read-out: Activity
# [3] = test system: SK-HEP1; assay: Antiproliferative activity against human SK-HEP1 cells assessed as cell viability at 80 uM incubated for 72 hrs by CCK-8 assay; assay type: functional; details: read-out: Activity
# [4] = test system: CAL-27; assay: Antiproliferative activity against human CAL-27 cells assessed as reduction in cell viability incubated for 72 hrs by CCK-8 assay; assay type: functional, cell-based; details: CAL-27, 72 h
# [5] = test system: FaDu; assay: Antiproliferative activity against human FaDu cells assessed as reduction in cell viability incubated for 72 hrs by CCK-8 assay; assay type: functional, cell-based
# [6] = Antiproliferative activity against human NP69SV40T cells assessed as reduction in cell viability incubated for 72 hrs by CCK-8 assay; assay type: toxicity, cell-based
# [7] = test system: 5-8F; assay: Inhibition of colony formation in human 5-8F cells at 10 to 30 uM replaced with fresh medium for every 3 days and measured for 10 to 15 days by Giemsa staining based assay; assay type: functional, cell-based; details: dose 10-30 µM, time 10-15 day
# [8] = test system: 5-8F; assay: Antiproliferative activity against human 5-8F cells assessed as reduction in Ki67 expression at 10 to 30 uM by Western blotting analysis; assay type: functional, cell-based; details: dose 10-30 µM
# [9] = test system: CAL-27; assay: Antiproliferative activity against human CAL-27 cells assessed as reduction in Ki67 expression at 10 to 30 uM by Western blotting analysis; assay type: functional, cell-based; details: dose 10-30 µM
# [10] = test system: 5-8F; assay: Induction of apoptosis in human 5-8F cells at 30 uM incubated for 48 hrs by Annexin V-FITC and PI staining based flow cytometry analysis; assay type: functional
# [11] = test system: 5-8F; assay: Induction of apoptosis in human 5-8F cells assessed as upregulation of p53 expression at 10 to 30 uM incubated for 48 hrs by Western blotting analysis; assay type: functional, cell-based; details: dose 10-30 µM
# [12] = test system: 5-8F; assay: Induction of apoptosis in human 5-8F cells assessed as upregulation of Bax expression at 10 to 30 uM incubated for 48 hrs by Western blotting analysis; assay type: functional, cell-based; details: dose 10-30 µM
# [13] = test system: 5-8F; assay: Induction of autophagy in human 5-8F cells assessed as increase in LC3 puncta accumulation at 30 uM incubated for 48 hrs by confocal microscopy analysis; assay type: functional, cell-based
# [14] = test system: 5-8F; assay: Induction of autophagy in human 5-8F cells assessed as appearance of autophagic vacuoles at 30 uM incubated for 48 hrs by TEM analysis; assay type: functional, cell-based
# [15] = test system: 5-8F; assay: Induction of autophagy in human 5-8F cells assessed as increase in LC3I to LC3II conversion at 10 to 30 uM by Western blotting analysis; assay type: functional, cell-based; details: dose 10-30 µM, time 48.0 hrs
# [16] = test system: 5-8F; assay: Induction of autophagy in human 5-8F cells assessed as increase in Beclin-1 expression at 10 to 30 uM by Western blotting analysis; assay type: functional, cell-based; details: dose 10-30 µM
# [17] = test system: 5-8F; assay: Induction of autophagy in human 5-8F cells assessed as decrease in p62 expression at 10 to 30 uM by Western blotting analysis; assay type: functional, cell-based; details: dose 10-30 µM
# [18] = test system: 5-8F; assay: Induction of ferroptosis in human 5-8F cells assessed as change in mitochondrial morphology at 30 uM incubated for 48 hrs by TEM analysis; assay type: functional, cell-based
# [19] = test system: 5-8F; assay: Induction of ferroptosis in human 5-8F cells assessed as increase in membrane density at 30 uM incubated for 48 hrs by TEM analysis; assay type: functional, cell-based
# [20] = test system: 5-8F; assay: Induction of ferroptosis in human 5-8F cells assessed as appearance of […] at 30 uM incubated for 48 hrs by TEM analysis; assay type: functional, cell-based
# [21] = test system: 5-8F; assay: Induction of ferroptosis in human 5-8F cells assessed as appearance of vacuoles at 30 uM incubated for 48 hrs by TEM analysis; assay type: functional, cell-based
# [22] = test system: 5-8F; assay: Induction of ferroptosis in human 5-8F cells assessed as appearance of small swollen contractile punctate structures at 30 uM incubated for 48 hrs by MitoTracker Red staining based confocal microscopic analysis; assay type: functional, cell-based
# [23] = test system: 5-8F; assay: Induction of ferroptosis in human 5-8F cells assessed as decrease in GPx4 expression at 10 to 30 uM incubated for 48 hrs in presence of Fer-1 by Western blotting analysis; assay type: functional, cell-based; details: dose 10-30 µM
# [24] = test system: 5-8F; assay: Induction of ferroptosis in human 5-8F cells assessed as decrease in GPx4 expression at 10 to 30 uM incubated for 48 hrs in presence of Era by Western blotting analysis; assay type: functional, cell-based; details: dose 10-30 µM
# [25] = test system: 5-8F; assay: Antiproliferative activity against human 5-8F cells assessed as decrease in cell viability at 30 uM incubated for 48 hrs in presence of Era; assay type: functional, cell-based
# [26] = test system: 5-8F; assay: Induction of ROS generation in human 5-8F cells at 10 to 30 uM after 48 hrs by DCFH-DA staining based flow cytometry analysis; assay type: functional, cell-based; details: dose 10-30 µM
# [27] = test system: 5-8F; assay: Induction of ROS generation in human 5-8F cells at 30 uM pretreated with NAC for 2 hrs followed by compound addition and measured after 48 hrs by DCFH-DA staining based flow cytometry analysis; assay type: functional, cell-based
# [28] = test system: 5-8F; assay: Induction of ROS generation in human 5-8F cells at 10 to 30 uM after 48 hrs by fluorescence microscopy analysis; assay type: functional, cell-based; details: dose 10-30 µM
# [29] = test system: 5-8F; assay: Upregulation of p38 MAPK phosphorylation in human 5-8F cells at 10 to 30 uM by Western blotting analysis; assay type: functional, cell-based; details: dose 10-30 µM
# [30] = test system: 5-8F; assay: Downregulation of p-AKT expression in human 5-8F cells at 10 to 30 uM by Western blotting analysis; assay type: functional, cell-based; details: dose 10-30 µM
# [31] = test system: 5-8F; assay: Downregulation of p-mTOR expression in human 5-8F cells at 10 to 30 uM by Western blotting analysis; assay type: functional, cell-based; details: dose 10-30 µM
# [32] = test system: 5-8F; assay: Downregulation of STAT3 phosphorylation in human 5-8F cells at 10 to 30 uM incubated for 48 hrs by Western blotting analysis; assay type: functional, cell-based; details: dose 10-30 µM
# [33] = test system: 5-8F; assay: Antitumor activity against human 5-8F cells xenografted in BALB/c mouse assessed as tumor growth inhibition at 10 to 20 mg/kg, ip administered daily; assay type: functional, organism-based; details: dose 10-20 mg/kg
# [34] = Toxicity in BALB/c mouse xenografted with human 5-8F cells assessed as decrease in body weight at 10 to 20 mg/kg, ip administered daily; assay type: organism-based; details: in vivo, dose 10-20 mg/kg
# [35] = test system: 5-8F; assay: Antitumor activity against human 5-8F cells xenografted in BALB/c mouse assessed as decrease in Ki67 expression at 10 to 20 mg/kg, ip administered daily; assay type: functional, organism-based; details: dose 10-20 mg/kg
# [36] = test system: 5-8F; assay: Antitumor activity against human 5-8F cells xenografted in BALB/c mouse assessed as decrease in GPx4 expression at 10 to 20 mg/kg, ip administered daily; assay type: functional, organism-based; details: dose 10-20 mg/kg
# [37] = Toxicity in BALB/c mouse xenografted with human 5-8F cells assessed as change in liver morphology at 10 to 20 mg/kg, ip administered daily by H and E staining based assay; assay type: organism-based; details: in vivo, dose 10-20 mg/kg
# [38] = Toxicity in BALB/c mouse xenografted with human 5-8F cells assessed as change in kidney morphology at 10 to 20 mg/kg, ip administered daily by H and E staining based assay; assay type: organism-based; details: in vivo, dose 10-20 mg/kg
# [39] = Toxicity in BALB/c mouse xenografted with human 5-8F cells assessed as change in spleen morphology at 10 to 20 mg/kg, ip administered daily by H and E staining based assay; assay type: organism-based; details: in vivo, dose 10-20 mg/kg
compound,measurement,setting,value
Cn1cc(/C(=N\O)C(=O)Nc2ccc(Cl)cc2)c2ccccc21,viability at 80 µM,[1],7.8%
same,viability at 80 µM,[2],12.3%
same,viability at 80 µM,[3],20.9%
same,IC50,[4],13.7 µM
same,IC50,[5],22.2 µM
same,IC50 at 72 h,[6],70.9 µM
same,inhibition,[7],Active
same,Activity,[8],Active
same,Activity,[9],Active
same,Activity,[10],29.1%
same,Activity,[11],Active
same,Activity,[12],Active
same,Activity,[13],Active
same,Activity,[14],Active
same,Activity,[15],Active
same,Activity,[16],Active
same,Activity,[17],Active
same,Activity,[18],Active
same,Activity,[19],Active
same,Activity,[20],Active
same,Activity,[21],Active
same,Activity,[22],Active
same,Activity,[23],inactive
same,Activity,[24],Active
same,Activity,[25],Active
same,Activity,[26],Active
same,Activity,[27],inactive
same,Activity,[28],Active
same,Activity,[29],Active
same,Activity,[30],Active
same,Activity,[31],Active
same,Activity,[32],Active
same,Activity,[33],Active
same,Activity,[34],Non-Toxic
same,Activity,[35],Active
same,Activity,[36],Active
same,Activity,[37],Non-Toxic
same,Activity,[38],Non-Toxic
same,Activity,[39],Non-Toxic

# — ChEMBL document CHEMBL5223175, “Discovery of novel 2-oximino-2-indolylacetamide derivatives as potent anticancer agents capable of inducing cell autophagy and ferroptosis” (Bioorg Med Chem, 2023)
